According to US20240174618A1, “SUBSTITUTED (2-HETEROARYLOXYPHENYL)SULFONATES, SALTS THEREOF AND THEIR USE AS HERBICIDAL AGENTS” (Bayer Aktiengesellschaft, priority 2021, published 2024):

What was measured:
Assay type in all cases: in vivo
[1] = system: Digitaria sanguinalis (DIGSA); test: B. Herbicidal post-emergence efficacy, DIGSA; conditions: rated visually after about 3 weeks
Description: (§1) Seeds of mono- and dicotyledonous weed plants were placed in plastic pots in sandy loam soil (doubly sown with in each case one species of mono- or dicotyledonous weed plants per pot), covered with soil and cultivated in a greenhouse under controlled growth conditions. 2 to 3 weeks after sowing, the test plants were treated at the one-leaf stage. The compounds of the invention, formulated in the form of wettable powders (WP) or as emulsion concentrates (EC), were applied onto the green parts of the plants as aqueous suspension or emulsion with addition of 0.5% additive at a water application rate of 600 liters per hectare (converted). After the test plants had been kept in the greenhouse under optimum growth conditions for about 3 weeks, the activity of the preparations was rated visually in comparison to untreated controls.
(§2) For example, • 100% efficacy=plants have died, • 0% efficacy=like untreated control plants
(§3) Tables B1a to B12c below show the effects of selected inventive compounds of the general formula (I) according to table 1 on various harmful plants at an application rate corresponding to 1280 g/ha or less, which were obtained by the experimental procedure mentioned above.

[2] = system: Abutilon theophrasti (ABUTH); test: A. Herbicidal pre-emergence efficacy, ABUTH; conditions: 1280 g/ha; scored visually after about 3 weeks vs untreated controls
From the text: (§4) Seeds of mono- and dicotyledonous weed plants were placed in plastic pots in sandy loam soil (doubly sown with one species each of mono- or dicotyledonous weed plants per pot) and covered with soil. The compounds of the invention, formulated in the form of wettable powders (WP) or as emulsion concentrates (EC), were then applied onto the surface of the covering soil as aqueous suspension or emulsion with addition of 0.5% additive at a water application rate of 600 liters per hectare (converted). After the treatment, the pots were placed in a greenhouse and kept under good growth conditions for the test plants. After about 3 weeks, the efficacy of the preparations was scored visually in comparison with untreated controls as percentages.
(§5) For example, • 100% efficacy=plants have died, • 0% efficacy=like untreated control plants.
(§6) Tables A1a to A12c below show the effects of selected compounds of the general formula (I) according to table 1 on various harmful plants at an application rate corresponding to 1280 g/ha or less, which were obtained by the experimental procedure mentioned above.

Stellaria media (STEME) [3] = test: A. Herbicidal pre-emergence efficacy, STEME
From the text: as §4, §5, §6

Setaria viridis (SETVI) [4] = test: A. Herbicidal pre-emergence efficacy, SETVI
From the text: as §4, §5, §6

[5] = system: Abutilon theophrasti (ABUTH); test: B. Herbicidal post-emergence efficacy, ABUTH; conditions: rated visually after about 3 weeks
Description: as §1, §2, §3

Kochia scoparia (KCHSC) [6] = test: A. Herbicidal pre-emergence efficacy, KCHSC; conditions: pre-emergence
From the text: as §4, §5, §6

[7] = system: Digitaria sanguinalis (DIGSA); test: A. Herbicidal pre-emergence efficacy, DIGSA; conditions: scored visually after about 3 weeks vs untreated controls
From the text: as §4, §5, §6

Veronica persica (VERPE) [8] = test: A. Herbicidal pre-emergence efficacy, VERPE
From the text: as §4, §5, §6

[9] = system: Amaranthus retroflexus (AMARE); test: B. Herbicidal post-emergence efficacy, AMARE
Description: as §1, §2, §3

Kochia scoparia (KCHSC) [10] = test: B. Herbicidal post-emergence efficacy, KCHSC; conditions: for Post-emergence efficacy against KCHSC in %: rated visually after about 3 weeks; for Post-emergence efficacy against KCHSC: 1280 g/ha
Description: as §1, §2, §3

Veronica persica (VERPE) [11] = test: B. Herbicidal post-emergence efficacy, VERPE
Description: as §1, §2, §3

Poa annua (POAAN) [12] = test: A. Herbicidal pre-emergence efficacy, POAAN
From the text: as §4, §5, §6

Poa annua (POAAN) [13] = test: B. Herbicidal post-emergence efficacy, POAAN
Description: as §1, §2, §3

[14] = system: Echinochloa crus-galli (ECHCG); test: A. Herbicidal pre-emergence efficacy, ECHCG; conditions: 1280 g/ha; scored visually after about 3 weeks vs untreated controls
From the text: as §4, §5, §6

[15] = system: Echinochloa crus-galli (ECHCG); test: B. Herbicidal post-emergence efficacy, ECHCG; conditions: 1280 g/ha, rated visually after about 3 weeks
Description: as §1, §2, §3

Stellaria media (STEME) [16] = test: B. Herbicidal post-emergence efficacy, STEME
Description: as §1, §2, §3

[17] = system: Amaranthus retroflexus (AMARE); test: A. Herbicidal pre-emergence efficacy, AMARE
From the text: as §4, §5, §6

Setaria viridis (SETVI) [18] = test: B. Herbicidal post-emergence efficacy, SETVI; conditions: 1280 g/ha
Description: as §1, §2, §3

SMILES	Post-emergence efficacy against DIGSA in % ([1]; 1280 g/ha) [%]	Pre-emergence efficacy against ABUTH [2] [%]	Pre-emergence efficacy against STEME (Stellaria media (STEME) [3]; dosage 320 g/ha) [%]	Pre-emergence efficacy against STEME (Stellaria media (STEME) [3]; dosage 1280 g/ha) [%]	Pre-emergence efficacy against SETVI (Setaria viridis (SETVI) [4]; dosage 320 g/ha) [%]	Pre-emergence efficacy against SETVI (Setaria viridis (SETVI) [4]; dosage 1280 g/ha) [%]	Post-emergence efficacy against ABUTH in % ([5]; 320 g/ha) [%]	Post-emergence efficacy against ABUTH in % ([5]; 1280 g/ha) [%]	Pre-emergence efficacy against KCHSC (Kochia scoparia (KCHSC) [6]; dosage 320 g/ha) [%]	Pre-emergence efficacy against KCHSC (Kochia scoparia (KCHSC) [6]; dosage 1280 g/ha) [%]	Pre-emergence efficacy against DIGSA ([7]; 320 g/ha) [%]	Pre-emergence efficacy against DIGSA ([7]; 1280 g/ha) [%]	Pre-emergence efficacy against VERPE in % (Veronica persica (VERPE) [8]; 320 g/ha) [%]	Pre-emergence efficacy against VERPE in % (Veronica persica (VERPE) [8]; 1280 g/ha) [%]	Post-emergence efficacy against AMARE ([9]; 80 g/ha) [%]	Post-emergence efficacy against AMARE ([9]; 320 g/ha) [%]	Post-emergence efficacy against AMARE ([9]; 1280 g/ha) [%]	Post-emergence efficacy against KCHSC in % (Kochia scoparia (KCHSC) [10]; 320 g/ha) [%]	Post-emergence efficacy against KCHSC (Kochia scoparia (KCHSC) [10]) [%]	Post-emergence efficacy against VERPE (Veronica persica (VERPE) [11]; 80 g/ha) [%]	other results
O=S(=O)(CC1CC(F)(F)C1)Oc1c(Br)cccc1Oc1ncc(Cl)cn1 [Example I-75]	90	100	100	100	90	100	90	100	90	100	90	100	90	100	100	100	100	100	100	100	Post-emergence efficacy against ABUTH in % ([5]; 80 g/ha): 90%; Post-emergence efficacy against KCHSC in % (Kochia scoparia (KCHSC) [10]; 80 g/ha): 90%; Post-emergence efficacy against VERPE (Veronica persica (VERPE) [11]; 320 g/ha): 100%; Post-emergence efficacy against VERPE (Veronica persica (VERPE) [11]; 1280 g/ha): 100%; Pre-emergence efficacy against POAAN (Poa annua (POAAN) [12]; dosage 320 g/ha): 100%; Pre-emergence efficacy against POAAN (Poa annua (POAAN) [12]; dosage 1280 g/ha): 100%; Post-emergence efficacy against POAAN (Poa annua (POAAN) [13]; 320 g/ha): 90%; Post-emergence efficacy against POAAN (Poa annua (POAAN) [13]; 1280 g/ha): 90%; Pre-emergence efficacy against ECHCG [14]: 100%; Post-emergence efficacy against ECHCG in % [15]: 90%; Post-emergence efficacy against STEME (Stellaria media (STEME) [16]; 320 g/ha): 100%; Post-emergence efficacy against STEME (Stellaria media (STEME) [16]; 1280 g/ha): 100%; Pre-emergence efficacy against AMARE in % ([17]; 80 g/ha): 90%; Pre-emergence efficacy against AMARE in % ([17]; 320 g/ha): 90%; Pre-emergence efficacy against AMARE in % ([17]; 1280 g/ha): 100%
N#Cc1cccc(Oc2ncc(Cl)cn2)c1OS(=O)(=O)CC1CC(F)(F)C1 [Example I-79]	100	90	90	100	90	100	90	100	90	100	100	100	100	100	90	100	100	100	100	100	Post-emergence efficacy against DIGSA in % ([1]; 320 g/ha): 90%; Post-emergence efficacy against KCHSC in % (Kochia scoparia (KCHSC) [10]; 80 g/ha): 90%; Post-emergence efficacy against VERPE (Veronica persica (VERPE) [11]; 320 g/ha): 100%; Post-emergence efficacy against VERPE (Veronica persica (VERPE) [11]; 1280 g/ha): 100%; Pre-emergence efficacy against POAAN (Poa annua (POAAN) [12]; dosage 1280 g/ha): 90%; Pre-emergence efficacy against ECHCG [14]: 90%; Post-emergence efficacy against ECHCG in % [15]: 100%; Post-emergence efficacy against SETVI (Setaria viridis (SETVI) [18]): 90%; Post-emergence efficacy against STEME (Stellaria media (STEME) [16]; 80 g/ha): 90%; Post-emergence efficacy against STEME (Stellaria media (STEME) [16]; 320 g/ha): 100%; Post-emergence efficacy against STEME (Stellaria media (STEME) [16]; 1280 g/ha): 100%; Pre-emergence efficacy against AMARE in % ([17]; 80 g/ha): 90%; Pre-emergence efficacy against AMARE in % ([17]; 320 g/ha): 100%; Pre-emergence efficacy against AMARE in % ([17]; 1280 g/ha): 100%
N#Cc1cccc(Oc2ncc(Cl)cn2)c1OS(=O)(=O)CCCCl [Example I-80]	90	90	100	100	90	100	90	100	90	100	90	100	90	100	100	100	100	90	90	90	Post-emergence efficacy against ABUTH in % ([5]; 80 g/ha): 90%; Post-emergence efficacy against VERPE (Veronica persica (VERPE) [11]; 320 g/ha): 90%; Post-emergence efficacy against VERPE (Veronica persica (VERPE) [11]; 1280 g/ha): 100%; Pre-emergence efficacy against POAAN (Poa annua (POAAN) [12]; dosage 320 g/ha): 90%; Pre-emergence efficacy against POAAN (Poa annua (POAAN) [12]; dosage 1280 g/ha): 90%; Post-emergence efficacy against POAAN (Poa annua (POAAN) [13]; 1280 g/ha): 90%; Pre-emergence efficacy against ECHCG [14]: 90%; Post-emergence efficacy against ECHCG in % [15]: 100%; Post-emergence efficacy against SETVI (Setaria viridis (SETVI) [18]): 90%; Post-emergence efficacy against STEME (Stellaria media (STEME) [16]; 80 g/ha): 90%; Post-emergence efficacy against STEME (Stellaria media (STEME) [16]; 320 g/ha): 100%; Post-emergence efficacy against STEME (Stellaria media (STEME) [16]; 1280 g/ha): 100%; Pre-emergence efficacy against AMARE in % ([17]; 80 g/ha): 90%; Pre-emergence efficacy against AMARE in % ([17]; 320 g/ha): 90%; Pre-emergence efficacy against AMARE in % ([17]; 1280 g/ha): 100%
